In US5589506A, “Stilbene derivative and stilbene analog derivative, and use thereof” (Morinaga Milk Industry Co., Ltd., priority 1993, dated 1996):
Where two headings read alike, the source gives them in different places.

Experiments:
12-lipoxygenase = target: T1, 12-lipoxygenase (Rattus norvegicus, UniProt F1LQ70); assay: 12-lipoxygenase inhibition assay (rat platelet enzyme solution); assay type: biochemical, Sprague Dawley male rat; conditions: for inhibition at 1 µM: 10^-6 (mole concentration); for inhibition at 0.1 µM: 10^-7 (mole concentration)
T1 construct: The pelleted platelets were rinsed twice with a washing buffer; from tissue; host or cells: platelets of Sprague Dawley male rat (sonicate, 100,000 x g supernatant)
T1 sequence (F1LQ70 1-663): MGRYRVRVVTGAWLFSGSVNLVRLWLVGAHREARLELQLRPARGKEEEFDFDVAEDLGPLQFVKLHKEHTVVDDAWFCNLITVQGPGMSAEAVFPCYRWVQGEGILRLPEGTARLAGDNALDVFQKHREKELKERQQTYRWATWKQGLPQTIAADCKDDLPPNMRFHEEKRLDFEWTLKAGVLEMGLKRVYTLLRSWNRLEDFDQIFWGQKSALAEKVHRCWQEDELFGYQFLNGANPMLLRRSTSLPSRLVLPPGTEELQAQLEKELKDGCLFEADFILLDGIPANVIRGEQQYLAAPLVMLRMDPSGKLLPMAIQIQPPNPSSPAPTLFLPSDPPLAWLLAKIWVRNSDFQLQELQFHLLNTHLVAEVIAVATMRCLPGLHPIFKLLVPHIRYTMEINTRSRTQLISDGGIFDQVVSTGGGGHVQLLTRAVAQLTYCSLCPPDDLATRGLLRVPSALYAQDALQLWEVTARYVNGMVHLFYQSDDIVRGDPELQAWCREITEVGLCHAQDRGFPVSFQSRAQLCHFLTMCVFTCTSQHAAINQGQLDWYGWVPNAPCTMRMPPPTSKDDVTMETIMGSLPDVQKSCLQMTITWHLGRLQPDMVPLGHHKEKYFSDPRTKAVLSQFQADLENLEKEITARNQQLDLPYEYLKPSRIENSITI
Procedure: The test was performed to examine inhibitory effect of various compounds on the 12-lipoxyganase activity.
1) Preparation of Enzyme Solution
A Sprague Dawley male rat was anesthetized with ether and bled from abdominal aorta using a syringe filled with about one-tenth volume of 3.8% sodium citrate. Blood was centrifuged at 180×g for 15 minutes at room temperature to pellet sanguineous platelet blood plasma. The resultant supernatant was again centrifuged at 1800×g for 10 minutes at 4° C. The pelleted platelets were rinsed twice with a washing buffer (50 mM Tris-hydrochloric acid buffer containing 154 mM sodium chloride and 2 mM EDTA, pH: 7.4). The platelets were then suspended in one-twentieth volume of a resuspension buffer (50 mM Tris-hydrochloric acid buffer containing 154 mM sodium chloride and 5.5 mM glucose, pH: 7.4). The platelets were then sonicated at 4° C. and centrifuged at 100,000×g for 30 minutes to obtain a supernatant as a 12-lipoxgenaseenzyme solution.
2) Procedure for 12-lipoxgenase inhibition assay
The enzyme solution described above was diluted with the resuspension buffer above mentioned to prepare an assay solution so as to include about 2 mU/ml of 12-lipoxygenase. […] The resultant mixture was incubated at 37° C. for 5 minutes. Subsequently, 3 μl of a 2.5 mM arachidonic acid solution in ethanol was added to incubate with for another 5 minutes at 37° C., then the reaction was ceased by the addition of 600 μl of methanol. After being centrifuged at 10,000×g for 5 minutes, 12-hydroxyeicosatetraenoic acid recovered in the supernatant was separated with a reverse phase high-performance liquid chromatography equipped with a […] the activity of 12 lipoxygenase.
The enzyme solution was prepared according to the same manner as in Test Example 1.
It was prepared according to the same procedure as in Test Example 1.
Measurement was performed according to the same procedure as in Test Example 1.
The measurement was performed according to the same procedure as in Test Example 1.

5-lipoxygenase = target: T2, 5-lipoxygenase (Rattus norvegicus, UniProt P12527); assay: 5-lipoxygenase inhibition assay (rat basophilic leukemia cell RBL-1 enzyme solution); assay type: biochemical
T2 construct: Cultured cells were collected and washed twice; host or cells: RBL-1 rat basophilic leukemia cells (sonicate, 10,000 x g supernatant)
T2 sequence (P12527 1-673): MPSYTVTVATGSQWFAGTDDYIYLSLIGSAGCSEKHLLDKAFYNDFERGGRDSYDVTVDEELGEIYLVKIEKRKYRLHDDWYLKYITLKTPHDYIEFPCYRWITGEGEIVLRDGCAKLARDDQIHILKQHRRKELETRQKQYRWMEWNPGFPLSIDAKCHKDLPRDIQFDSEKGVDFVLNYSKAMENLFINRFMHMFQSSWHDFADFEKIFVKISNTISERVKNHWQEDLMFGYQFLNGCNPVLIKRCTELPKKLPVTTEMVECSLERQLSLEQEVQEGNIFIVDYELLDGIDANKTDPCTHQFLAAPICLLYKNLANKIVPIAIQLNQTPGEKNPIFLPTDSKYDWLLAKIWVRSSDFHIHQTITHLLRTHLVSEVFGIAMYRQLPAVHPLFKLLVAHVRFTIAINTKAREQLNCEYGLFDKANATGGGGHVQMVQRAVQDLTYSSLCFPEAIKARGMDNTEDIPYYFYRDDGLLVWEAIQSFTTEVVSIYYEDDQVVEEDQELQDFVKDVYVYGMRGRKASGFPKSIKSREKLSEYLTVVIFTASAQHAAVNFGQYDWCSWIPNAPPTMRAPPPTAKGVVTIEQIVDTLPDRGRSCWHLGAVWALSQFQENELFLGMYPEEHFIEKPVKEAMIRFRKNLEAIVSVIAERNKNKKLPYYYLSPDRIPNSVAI
Procedure: The test was carried out to examine the selectivity toward 12-lipoxgenase of the compounds of the first embodiment in the present invention.
i) Preparation of 5-lipoxgenase enzyme solution
Rat basophilic leukemia cells (RBL-1, ATCC CRL1378) were cultured in Dulbecco modified Eagle's medium containing 10% new-born bovine serum.
Cultured cells were collected and washed twice with a 50 mM Tris-buffered saline (containing 154 mM sodium chloride, pH: 7.4, hereinafter described as TBS). The cell suspension (4×10^7 cells/ml) was then sonicated and centrifuged at 10,000×g for 10 minutes.
The resultant supernatant was used to prepare an assay solution.
i) Procedure for 5-lipoxgenase inhibition assay
To an aliquot (15 μl) of the enzyme solution (40 mU/ml equivalent) was added 185 μl of TBS, 50 μl of a 2 mM adenosine triphosphate in TBS, 50 μl of a 12 mM calcium chloride in TBS, 1 μl of a 3 mM indomethacin in ethanol solution, 1 μl of an aqueous 300 mM reduced glutathione solution, and 3 μl of varied concentrated test compounds solution in ethanol. The resultant mixture was incubated at 37° C. for 5 minutes. Subsequently, 3 μl of a 2.5 mM arachidonic acid solution in ethanol was added to incubate the mixture for 2 minutes at 37° C. The reaction was ceased by the addition of 600 μl of methanol After being centrifuged at 10,000×g for 5 minutes, 5-hydroxyeicosatetraenoic acid recovered in the supernatant was separated with a reverse phase high-performance liquid chromatography equipped with a C-18 column and measured the absorption of diene at 234 nm to quantify the activity of the enzyme. […]
The enzyme activities of the compounds of the present invention prepared according to the same procedure as in Examples 54-58 to be described later and baicalein as sample substances at varied concentrations were measured according to the above-mentioned method, and mole concentrations showing 50% 12-lipoxgenase and 5-lipoxgenase inhibition ratios (hereinafter may be described as IC50 values) were obtained from the measured values of the sample substances.

[1] = 10^-5 (mole concentration), 10 µM
[2] = read-out: 12-Lipoxygenase inhibition ratio (%)
[3] = 10^-5 (mole concentration), read-out: 12-Lipoxygenase inhibition ratio (%)
[4] = Table 2, read-out: 12-Lipoxygenase IC50 values
[5] = Table 3, read-out: IC50 values of 12-lipoxygenase (mole)
[6] = Table 12, deacylated compounds, read-out: 12-Lipoxygenase inhibitory effect of deacylated compounds (IC50 values)
[7] = Table 3, read-out: IC50 values of 5-lipoxygenase (mole)
[8] = Table 23, read-out: 12-Lipoxygenase inhibitory effect IC50
[9] = Table 23, read-out: 5-Lipoxygenase inhibitory effect IC50

## COc1cc(C=C(C#N)c2ccc(Cl)cc2)ccc1O [Comp. Ex. 4, reference compound]
12-lipoxygenase; [1]
  12-Lipoxygenase inhibition ratio (%): 2%
12-lipoxygenase; [2]
  inhibition at 1 µM: 0%
  inhibition at 0.1 µM: 0%

## N#CC(=Cc1ccc(O)c(O)c1)c1ccc(Cl)cc1 [Ex. 1, α-cyano-4-chloro-3',4'-dihydroxystilbene]
12-lipoxygenase; [3]
  inhibition at 10 µM: 97%
12-lipoxygenase; [2]
  inhibition at 1 µM: 97%
  inhibition at 0.1 µM: 98%
12-lipoxygenase; 10^-8 (mole concentration), 0.01 µM
  12-Lipoxygenase inhibition ratio (%): 73%
12-lipoxygenase; 10^-8 (mole concentration), 0.01 µM, listed as Example 1, 0.01 µM
  12-Lipoxygenase inhibition ratio (%): 73%
12-lipoxygenase; 10^-9 (mole concentration), read-out: 12-Lipoxygenase inhibition ratio (%)
  inhibition at 0.001 µM: 1%
12-lipoxygenase; [4]
  IC50: 4.2 nM
12-lipoxygenase; [5]
  IC50: 4.2 nM
12-lipoxygenase; [6]
  IC50: 4.2 nM
5-lipoxygenase; [7]
  IC50: 38 nM

## Cc1ccc(C(C#N)=Cc2ccc(O)c(O)c2)cc1 [Ex. 6]
12-lipoxygenase; [5]
  IC50: 4.5 nM
5-lipoxygenase; [7]
  IC50: 48 nM

## N#CC(=Cc1ccc(O)c(O)c1)c1ccc2ccccc2c1 [Formula 23c]
12-lipoxygenase; [8]
  IC50: 10 nM
5-lipoxygenase; [9]
  IC50: 30 nM

## N#CC(=Cc1cccc2ccccc12)c1ccc(O)c(O)c1 [Formula 25c]
12-lipoxygenase; [8]
  IC50: 5.9 nM
5-lipoxygenase; [9]
  IC50: 36 nM

## N#CC(=Cc1ccc(Br)cc1)c1ccc(O)c(O)c1 [Ex. 23, α-cyano-4'-bromo-3,4-dihydroxystilbene]
12-lipoxygenase; [5]
  IC50: 2.2 nM
12-lipoxygenase; [6]
  IC50: 3.6 nM
5-lipoxygenase; [7]
  IC50: 70 nM

## Oc1ccc(/C=C/c2ccccc2)cc1O [Comp. Ex. 5, reference compound]
12-lipoxygenase
  12-lipoxygenase inhibitory effect (in words): remarkably poor compared with that of the compound (Example 1)
12-lipoxygenase; [4]
  IC50: 1200 nM

## N#CC(=Cc1ccc(O)c(O)c1)c1ccc(F)cc1 [Ex. 3]
12-lipoxygenase; [5]
  IC50: 4.8 nM
5-lipoxygenase; [7]
  IC50: 94 nM

## CCc1ccc(C(C#N)=Cc2ccc(O)c(O)c2)cc1 [Ex. 11]
12-lipoxygenase; [5]
  IC50: 5.8 nM
5-lipoxygenase; [7]
  IC50: 46 nM

## N#CC(=Cc1cc2ccccc2o1)c1ccc(O)c(O)c1 [Formula 26c]
12-lipoxygenase; [8]
  IC50: 3.2 nM
5-lipoxygenase; [9]
  IC50: 34 nM

## N#CC(=Cc1ccc(O)c(O)c1)c1ccc(Br)cc1 [Ex. 4]
12-lipoxygenase; [5]
  IC50: 3.6 nM
5-lipoxygenase; [7]
  IC50: 15 nM

## N#CC(=Cc1ccc(O)c(O)c1)c1csc2ccccc12 [Formula 22c]
12-lipoxygenase; [8]
  IC50: 8.6 nM
5-lipoxygenase; [9]
  IC50: 56 nM

## N#CC(=Cc1ccc(F)cc1)c1ccc(O)c(O)c1 [Ex. 21, α-cyano-4'-fluoro-3,4-dihydroxystilbene]
12-lipoxygenase; [5]
  IC50: 4.8 nM
12-lipoxygenase; [6]
  IC50: 4.8 nM
5-lipoxygenase; [7]
  IC50: 74 nM

## N#CC(=Cc1ccc(Cl)cc1)c1ccc(O)c(O)c1 [Ex. 2, α-cyano-4'-chloro-3,4-dihydroxystilbene]
12-lipoxygenase; [5]
  IC50: 1.8 nM
12-lipoxygenase; [6]
  IC50: 1.8 nM
5-lipoxygenase; [7]
  IC50: 56 nM

## N#CC(=Cc1ccc(O)c(O)c1)c1ccc(I)cc1 [Ex. 5, α-cyano-4-iodo-3',4'-dihydroxystilbene]
12-lipoxygenase; [5]
  IC50: 5.4 nM
12-lipoxygenase; [6]
  IC50: 5.4 nM
5-lipoxygenase; [7]
  IC50: 20 nM

## COc1ccc(C=C(C#N)c2ccc(Cl)cc2)cc1O [Comp. Ex. 3, reference compound]
12-lipoxygenase; [1]
  12-Lipoxygenase inhibition ratio (%): 10%
12-lipoxygenase; [3]
  inhibition at 10 µM: < 10%
12-lipoxygenase; [2]
  inhibition at 1 µM: 1%
  inhibition at 0.1 µM: 0%

## N#CC(=Cc1ccc(O)c(O)c1)c1ccc(O)cc1 [Comp. Ex. 7, reference compound]
12-lipoxygenase; [4]
  IC50: 230 nM

## N#CC(=Cc1ccc(O)c(O)c1)c1ccccc1 [Ex. 9]
12-lipoxygenase; [5]
  IC50: 15 nM
5-lipoxygenase; [7]
  IC50: 110 nM

## Cc1ccc(C=C(C#N)c2ccc(O)c(O)c2)cc1 [Ex. 24, α-cyano-4'-methyl-3,4-dihydroxystilbene]
12-lipoxygenase; [5]
  IC50: 2.5 nM
12-lipoxygenase; [6]
  IC50: 4.5 nM
5-lipoxygenase; [7]
  IC50: 52 nM

## N#CC(=Cc1cccc(O)c1)c1ccc(Cl)cc1 [Comp. Ex. 1, reference compound]
12-lipoxygenase; [1]
  12-Lipoxygenase inhibition ratio (%): 7%
12-lipoxygenase; [3]
  inhibition at 10 µM: < 10%
12-lipoxygenase; [2]
  inhibition at 1 µM: 1%
  inhibition at 0.1 µM: 0%

## N#CC(=Cc1ccc(O)c(O)c1)c1ccc(Br)s1 [Ex. 14]
12-lipoxygenase; [5]
  IC50: 3.6 nM
5-lipoxygenase; [7]
  IC50: 26 nM

## N#CC(=Cc1ccc(C(=O)O)cc1)c1ccc(O)c(O)c1 [Comp. Ex. 9, reference compound]
12-lipoxygenase; [4]
  IC50: 5000 nM

## N#CC(=Cc1ccc2ccccc2c1)c1ccc(O)c(O)c1 [Formula 24c]
12-lipoxygenase; [8]
  IC50: 5.6 nM
5-lipoxygenase; [9]
  IC50: 28 nM

## N#CC(=Cc1ccccc1)c1ccc(O)c(O)c1 [Ex. 20, α-cyano-3,4-dihydroxystilbene]
12-lipoxygenase; [5]
  IC50: 17 nM
5-lipoxygenase; [7]
  IC50: 96 nM

## N#CC(=Cc1ccc(O)cc1)c1ccc(Cl)cc1 [Comp. Ex. 2, reference compound]
12-lipoxygenase; [1]
  12-Lipoxygenase inhibition ratio (%): 10%
12-lipoxygenase; [3]
  inhibition at 10 µM: < 10%
12-lipoxygenase; [2]
  inhibition at 1 µM: 2%
  inhibition at 0.1 µM: 5%

## N#CC(=Cc1ccc(O)c(O)c1)c1ccc(O)c(O)c1 [Comp. Ex. 8, reference compound]
12-lipoxygenase; [4]
  IC50: 300 nM

## CCOC(=O)C(=Cc1ccc(O)c(O)c1)c1ccccc1 [Comp. Ex. 6, reference compound]
12-lipoxygenase
  12-lipoxygenase inhibitory effect (in words): remarkably poor compared with that of the compound (Example 1)
12-lipoxygenase; [4]
  IC50: 160 nM

## COc1ccc(C(C#N)=Cc2ccc(O)c(O)c2)cc1 [Formula 55b, α-cyano-4-methoxy-3',4'-dihydroxystilbene]
12-lipoxygenase; [6]
  IC50: 6 nM
